Experimental findings from patent US5786372A, “Heteroaryl compounds used as pharmaceuticals” (SmithKline Beecham p.l.c., priority 1992, dated 1998) are described below.

A word on the IC50: it is the concentration that inhibits the measured activity by half. A higher IC50 goes with weaker potency in that assay.

The structures appear in SMILES notation. Counter-ions that a name gives are not always drawn.

In this assay the target is T1, 5-HT4 receptor (Cavia porcellus, UniProt O70528).
T1 construct: Longitudinal muscle-myenteric plexus preparations, approximately 3 cm long, are obtained from the distal colon region; from tissue; host or cells: guinea-pig distal colon, longitudinal muscle-myenteric plexus preparation
In words: Guinea pig colon 5-HT4 receptor antagonist activity (longitudinal muscle-myenteric plexus, 5-HT evoked contraction). As to conditions: -log concentration of antagonist which reduces the 5-HT evoked contraction by 50%; guinea-pig distal colon; methiothepin 10^-7 M and granisetron 10^-6 M present. How it is done: 5-HT4 RECEPTOR ANTAGONIST ACTIVITY
Male guinea-pigs, weighing 250-400 g are used. Longitudinal muscle-myenteric plexus preparations, approximately 3 cm long, are obtained from the distal colon region. These are suspended under a 0.5 g load in isolated tissue baths containing Krebs solution bubbled with 5% CO2 in O2 and maintained at 37° C. In all experiments, the Krebs solution also contains methiothepin 10^-7 M and granisetron 10^-6 M to block effects at 5-HT1, 5-HT2 and 5-HT3 receptors.
After construction of a simple concentration-response curve with 5-HT, using 30 s contact times and a 15 min dosing cycle, a concentration of 5-HT is selected so as to obtain a contraction of the muscle approximately 40-70% maximum (10^-9 M approx). The tissue is then alternately dosed every 15 min with this concentration of 5-HT and then with an approximately equi-effective concentration of the nicotine receptor stimulant, dimethylphenylpiperazinium (DMPP). After obtaining consistent responses to both 5-HT and DMPP, increasing concentrations of a putative 5-HT4 receptor antagonist are then added to the bathing solution. The effects of this compound are then determined as a percentage reduction of the contractions evoked by 5-HT or by DMPP. […] A compound which reduces the response to 5-HT but not to DMPP is believed to act as a 5-HT4 receptor antagonist.

T1 sequence (O70528 whole entry): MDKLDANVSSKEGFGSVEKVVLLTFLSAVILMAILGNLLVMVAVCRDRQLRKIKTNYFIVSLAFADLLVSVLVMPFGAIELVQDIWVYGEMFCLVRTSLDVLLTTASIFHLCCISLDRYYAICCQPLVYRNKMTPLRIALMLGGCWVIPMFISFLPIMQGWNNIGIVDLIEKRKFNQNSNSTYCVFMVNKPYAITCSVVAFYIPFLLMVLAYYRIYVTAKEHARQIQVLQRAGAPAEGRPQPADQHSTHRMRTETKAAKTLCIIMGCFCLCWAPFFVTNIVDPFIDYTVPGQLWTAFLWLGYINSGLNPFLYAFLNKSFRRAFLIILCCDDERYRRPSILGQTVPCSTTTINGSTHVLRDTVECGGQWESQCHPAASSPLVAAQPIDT

Regarding `Nc1c(Cl)cc(C(=O)OCC2CCN(CCCO)CC2)c2c1OCCO2` [Example E1, [1-(3Hydroxypropyl)-4-piperidinyl]methyl 8-amino-7-chloro-1,4-benzodioxan-5-carboxylate hydrochloride], the IC50 is 0.0631 nM.
